Measurements: patent US20120004289A1, “ANNEXIN A11 AND ASSOCIATED GENES AS BIOMARKERS FOR CANCER” (The Johns Hopkins University, priority 2009, published 2012)

Experiments:
Format in all cases: cell-based, human
HEY cells = test: Cell proliferation assay (CCK-8) after annexin A11 siRNA, HEY cells; settings: siRNA 40 nM 3 days, compared with negative control transfectants, P<0.05
Method: (§1) (A and B) Cell proliferation assay. 2008 (A) or HEY (B) cells were treated with RNAi (A1) or -Ctr at the concentration of 40 nM for 3 days, respectively, and then plated at 3000 viable cells per well into 96-well plates. Every 24 hours, one plate was subjected to assay by CCK-8 kit. The data in each time point are averaged values from eight replicates (P<0.05). (C) Colony formation assay. 2008 cells were treated in the same way as above for 3 days and then plated at 3000 viable cells per well into six-well plates. Six days after plating, cells were fixed with methanol and stained with 0.1% crystal violet and colonies were counted. The experiment was performed in six replicates (P<0.01). (D) Cell cytotoxicity assay. 2008 cells were treated in same way as above for 3 days and then plated at 3000 viable cells per well into 96-well plates. […]
(§2) Cell Counting Kit-8 (CCK-8; Dojindo, Gaithersburg, Md.) was used in cell proliferation assay. […] Cells were then collected by trypsinization, counted by using a hemacytometer with trypan blue dye, and plated at 3000 viable cells per well into 96-well tissue culture plates in a final volume of 100 μl. […] The absorbance at 450 nm was measured with a microplate reader (EL 312e; Biotek Instruments, Winooski, Vt.). […]

annexin A11 protein [1] = test: siRNA knockdown of annexin A11, immunoblot analysis in HEY cells; settings: after 2 days of siRNA transfection at 40 nM
Method: (A and B) Effect of silencing of annexin A11 using different siRNA. 2008 cells were treated with one (A1 or A2 or A3) or a combination (A1-3) of three stealth RNA against annexin A11 or nonspecific sequence (-Ctr) at the concentration of 40 nM or without treatment (Wt) for 3 days. Immunoblot analysis (A) and real-time PCR (B) were performed to confirm the suppression of annexin A11 mRNA and protein expressions in the cells. β-Actin was taken as an additional control for equal sampling in immunoblot analysis (A). The relative mRNA expression level of each sample was normalized to GAPDH expression and compared with -Ctr sample. *P<0.05 (B). (C) Dose-dependent silencing of annexin A11 by siRNA. 2008 cells were treated with RNAi (A1) at the indicated concentrations of 40, 20, 10, or 5 nM or -Ctr at the concentration of 40 nM or without treatment (Wt) for 3 days. Immunoblot analysis (C) was performed to check the annexin A11 expression levels in the cells. β-Actin was taken as an additional control for equal sampling. (D) Duration of silencing of annexin A11 using siRNA. 2008 or HEY cells were treated with RNAi (A1) or -Ctr at the concentration of 40 nM. […]
All stealth RNA interference (RNAi) sequences were purchased from Invitrogen. […] The optimized dose and duration of RNAi silencing were experimentally determined. […]

2008 cells [2] = test: Cell proliferation assay (CCK-8) after annexin A11 siRNA, 2008 cells; settings: siRNA 40 nM 3 days, compared with negative control transfectants, P<0.05
Method: as §1, §2

annexin A11 mRNA = test: siRNA knockdown of annexin A11, real-time PCR of mRNA in 2008 cells; settings: siRNA 40 nM, 3 days, compared with negative control cells (-Ctr), P<0.05
Method: (§3) (A and B) Effect of silencing of annexin A11 using different siRNA. 2008 cells were treated with one (A1 or A2 or A3) or a combination (A1-3) of three stealth RNA against annexin A11 or nonspecific sequence (-Ctr) at the concentration of 40 nM or without treatment (Wt) for 3 days. Immunoblot analysis (A) and real-time PCR (B) were performed to confirm the suppression of annexin A11 mRNA and protein expressions in the cells. β-Actin was taken as an additional control for equal sampling in immunoblot analysis (A). The relative mRNA expression level of each sample was normalized to GAPDH expression and compared with -Ctr sample. *P<0.05 (B). (C) Dose-dependent silencing of annexin A11 by siRNA. 2008 cells were treated with RNAi (A1) at the indicated concentrations of 40, 20, 10, or 5 nM or -Ctr at the concentration of 40 nM or without treatment (Wt) for 3 days. Immunoblot analysis (C) was performed to check the annexin A11 expression levels in the cells. β-Actin was taken as an additional control for equal sampling. (D) Duration of silencing of annexin A11 using siRNA. 2008 or HEY cells were treated with RNAi (A1) or -Ctr at the concentration of 40 nM. Immunoblot analysis was performed to analyze the annexin A11 expression levels in these cells.
All stealth RNA interference (RNAi) sequences were purchased from Invitrogen. The three stealth RNAi that targeted different annexin A11 sequences were as follows: A1, […]; A2, […]; and A3, […]. The stealth RNAi negative control duplex (medium GC) was used as a negative control. […] The optimized dose and duration of RNAi silencing were experimentally determined. […]
(Invitrogen) according to the manufacturer's instructions. […] An experiment consisted of triplicate amplification reactions for each gene product being analyzed. […] The cycle threshold number (CT) was determined for each PCR using iQ5 Real-time PCR Detection System (Bio-Rad). […] Results are expressed as relative abundance of a specific mRNA between control and experimental sample (fold change, mean±SD).

2008 cells [3] = test: Cell colony formation assay after annexin A11 siRNA, 2008 cells; settings: siRNA 40 nM 3 days, colonies counted six days after plating, P<0.01
Method: as §1
2008 and HEY cells were cultured in T25 flasks and transfected with A1 or negative control for 3 days. Cells were then collected, counted, and plated at 3000 viable cells per well into six-well plates. Six days after plating, cells were fixed with methanol and stained with 0.1% crystal violet, and colonies were counted under the light microscope. […]

annexin A11 protein [4] = test: siRNA knockdown of annexin A11, immunoblot analysis in 2008 cells; settings: for annexin A11 protein expression (immunoblot): siRNA 40 nM, compared with strong expression in -Ctr and Wt cells
Method: as §3
All stealth RNA interference (RNAi) sequences were purchased from Invitrogen. The three stealth RNAi that targeted different annexin A11 sequences were as follows: A1, […]; A2, […]; and A3, […]. The stealth RNAi negative control duplex (medium GC) was used as a negative control. Transfection of annexin A11-specific siRNA and the negative control was performed using Lipofectamine 2000 (Invitrogen). The optimized dose and duration of RNAi silencing were experimentally determined. Briefly, cancer cells were seeded the day before siRNA transfection in either six-well plates or T25 flasks and were 30% to 50% confluent at the time of transfection. Stealth RNAi and Lipofectamine were diluted in Opti-MEM I Medium (Invitrogen), and 40 nM of the siRNA duplex was used in each transfection mixture. 2008 or HEY cells were transfected with one annexin A11-specific siRNA (A1 or A2 or A3) or a combination of three different siRNA at the equal amount (A1-3) or negative control for 2 to 3 days and were then harvested for the downstream experiments.
The denatured samples were electrophoresed on 4% to 15% gradient SDS-PAGE gels (Bio-Rad), electroblotted on nitrocellulose membranes (Bio-Rad), and probed with the respective antibodies against different targets. Both anti-annexin A11 (1:10,000) and anti-annexin A5 (1:2000) monoclonal antibodies were purchased from BD Biosciences (San Jose, Calif.). Rabbit anti-human HMOX1 polyclonal antibody (1:500) and mouse polyclonal anti-LY6D (1:500) were purchased from GenWay Biotech (San Diego, Calif.) and Novus Biologicals (Littleton, Colo.), respectively. The bound antibodies were visualized with horseradish peroxidase-conjugated secondary antibodies and enhanced chemiluminescence (Amersham, Pittsburgh, Pa.). Actin in the corresponding cell lysates was used as an additional control to show equal loading.

| Substance | decrease in rate of proliferation (HEY cells) | duration of silencing of annexin A11 protein expression (annexin A11 protein [1]) | decrease in rate of proliferation (2008 cells [2]) | down-regulation in annexin A11 mRNA expression levels (annexin A11 mRNA) | colony formation ability (2008 cells [3]) | silencing effect on annexin A11 expression by concentration (immunoblot) (annexin A11 protein [4]; 5 to 40 nM, 3 days) | duration of silencing of annexin A11 protein expression (annexin A11 protein [4]; after 3 days of siRNA transfection at 40 nM) | annexin A11 protein expression (immunoblot) (annexin A11 protein [4]; 3 days) |
| --- | --- | --- | --- | --- | --- | --- | --- | --- |
| A1: stealth RNAi (Invitrogen) targeting annexin A11, GGCCGUGGUGAAAUGUCUCAAGAAU (chemistry not given here) | 34% | ≥ 7 days | 40% | three-fold to four-fold | greatly damaged | dose-dependent silencing effect | ≥ 10 days | barely detectable |
| A2: stealth RNAi (Invitrogen) targeting annexin A11, CCUCCUGGACAUCAGAUCAGAGUAU (chemistry not given here) | – | – | – | three-fold to four-fold | – | – | – | barely detectable |
| A3: stealth RNAi (Invitrogen) targeting annexin A11, GGGAUUACCGGAAGAUUCUGCUGAA (chemistry not given here) | – | – | – | three-fold to four-fold | – | – | – | barely detectable |
